# Reference: patent publication US5563142A, “Diaromatic substituted compounds as anti-HIV-1 agents” (The Upjohn Company, priority 1994, dated 1996)
# Biological target: T1, viral reverse transcriptase (Human immunodeficiency virus type 1 group M subtype B, UniProt P04585)
# T1 construct: Viral reverse transcriptase is found in extracts from bacterial clones; made in house; host or cells: Escherichia coli (extracts of bacterial clones, by the procedure of Larder et al., EMBO J. 6:3133-3137, 1987)
# Assay: Viral reverse transcriptase inhibition, cell free assay
# Format: biochemical, human immunodeficiency virus (HIV-1)
# Details: 100 μM; poly rC or poly rG template
# From the text: The utility of the diaromatic substituted piperazines (III), the anti-AIDS piperazines (IV) and the indoles (V) of this invention can be determined by their ability to inhibit viral reverse transcriptase, an enzyme essential for human immunodeficiency virus replication. This enzyme has characteristics which differentiate it from other known cellular polymerases and it is a unique enzyme which is not found in uninfected cells. Viral reverse transcriptase is found in extracts from bacterial clones prepared according to the procedure described in AIDS Virus Reverse Transcriptase defined by high level expression in Escherichia coli, EMBO J. 6:3133-3137 (1987). Inhibition of this enzyme is determined in a cell free assay which measures the level of radioactive precursors incorporated into DNA. Extracts prepared according to the procedure of Science, 1125-1129 (1981) are incubated in a mixture of inhibitor, 20 mM dithiothreitol, 60 mM sodium chloride, 0.05% NP-40, 10 mM magnesium chloride, 50 mM Tris pH 8.3, 10 μM [^35 S]-labeled deoxynuleoside-5'-triphosphate, 10 μg/ml RNA template (poly rC or poly rG) and 5 μg/ml DNA primer (oligo dG or oligo dT) for 30 minutes at 37° C. Incorporation of radio-labeled percursor is determined by spotting aliquots of the reaction mixture on DE81 paper, washing the papers to remove unincorporated percursor, drying and determining counts. The results (IC50 means the concentration, in μM of drug, required to inhibit the reverse transcriptase activity to the extent of 50%) of various assay(s) are combined and reported as % inhibition and IC50 (calculated).
# ^1 Viral reverse transcriptase is found in extracts from bacterial
# clones prepared according to the procedure described by Larder, B.,
# Purifoy D., Powell, K. and Darby, G., AIDS virus reverse transcriptase
# defined by high level expression in Escherichia coli., EMBO J. 6,
# 3133-3137 (1987). Inhibition of this enzyme is determined in a cell free
# assay which measures the level of radioactive precursors incorporated int
# DNA. Extracts prepared according to the procedure of Kleid, D. G., et
# al., Science, 1125-1129 (1981) are incubated in a mixture of inhibitor, 2
# mM dithiothreitol, 60 mM sodium chloride, 0.05% NP40, 10 mM magnesium
# chloride, 50 mM Tris pH 8.3, 10 μM [^35 Slabeled
# deoxynucleoside5triphosphate, 10 μg/ml RNA template (poly rC or poly
# rG) and 5 μg/ml DNA primer (oligo dG or oligo dT) for 15 minutes at
# 37°. Incorporation of radio labeled precursor is determined by
# harvesting the trichloroacetic acid precipitated reaction mixtures on
# glass fiber filters, drying, and determining counts. The results of
# various assays are combined and reported as % inhibition at a 100 μM
row,SMILES,RT % INHIBITION (100 μM)
1,"CC(C)Nc1cccnc1N1CCN(C(=O)c2cc3cc(OCC(=O)O)ccc3[nH]2)CC1 [Example 68, 1-[5-(Carboxymethoxy)indolyl-2-carbonyl]-4-[3-(1-methylethylamino)-2-pyridinyl]piperazine]",78-95%

# Same assay, conditions: read-out: RT % INHIBITION (100 μM), 100 μM; poly rC or poly rG template
row,SMILES,inhibition at 100 µM [%]
1,"CC(C)Nc1cccnc1N1CCN(C(=O)c2ccc[nH]2)CC1 [Example 69, 1-[Pyrrolyl-2-carbonyl]-4-[3-(1-methylethylamino)-2-pyridinyl]piperazine]",95
2,"CC(C)Nc1cccnc1N(C)CCN(C)C(=O)c1cc2cc(F)ccc2[nH]1 [Example 108, N,N'-Dimethyl-N-(5-fluoroindolyl-2-carbonyl)-N'-(3-(1-methylethylamino)-2-pyridyl)ethylenediamine]",77 to 89
3,"CC(C)Nc1cccnc1N1CCN(C(=O)c2cc3cc(Br)ccc3[nH]2)CC1 [Example 93, 1-[5-Bromoindolyl-2-carbonyl]-4-[3-(1-methylethylamino)-2-pyridinyl]piperazine]",87
4,"Cc1cccc2[nH]c(C(=O)N3CCN(c4ncccc4NC(C)C)CC3)cc12 [Example 97, 1-[4-Methylindolyl-2-carbonyl]-4-[3-(1-methylethylamino)-2pyridinyl]-piperazine]",52 to 80
5,"CC(C)Nc1cccnc1N1CCN(C(=O)c2cc3cc(OCC(=O)OCc4ccccc4)ccc3[nH]2)CC1 [Example 67, 1-[5-(Benzyloxycarbonylmethoxy)indolyl-2-carbonyl]-4-[3-(1-methylethylamino)-2-pyridinyl]piperazine]",60 to 84
6,"CCNc1cccnc1N1CCN(C(=O)c2cc3cc(OCc4ccccc4)ccc3[nH]2)CC1 [Example 35, 1-[5-Benzyloxyindolyl-2-carbonyl]-4-[3-(ethylamino)-2-pyridinyl]piperazine]",57 to 70
7,"CC(C)(C)Nc1ccnnc1N1CCN(C(=O)c2cc3cc(OCc4ccccc4)ccc3[nH]2)CC1 [Example 119, 1-[5-Benzyloxyindolyl-2-carbonyl]-4-[4-(1,1-dimethylethylamino)-2-pyridazinyl]piperazine]",53 to 58
8,CC(C)Nc1cccnc1N1CCN(C(=O)c2cc3ccc(C=O)cc3[nH]2)CC1 [Example 113],92 to 96
9,CCNc1cccnc1N(C)CCCCCCN(C)C(=O)c1cc2ccccc2[nH]1 [Example 112],74 to 82
10,CC(C)Nc1cccnc1N1CCN(C(=O)c2cc3cccnc3[nH]2)CC1 [Example 109],56 to 82
11,"O=C(c1cc2ccccc2[nH]1)N1CCN(c2ncccc2NCCF)CC1 [Example 117, 1-[Indolyl-2-carbonyl]-4-[3(2-fluoroethylamino)-2-pyridinyl]piperazine]",92
12,"CC(C)Nc1cccnc1N(C)C1CCN(C(=O)c2cc3ccccc3[nH]2)CC1 [Example 131, 1-(Indolyl-2-carbonyl)-4-(N-methyl-N-(3-(1-methylethylamino)-2-pyridinyl)amino)piperidine]",85 to 97
13,"CC(C)Nc1cccnc1N1CCN(C(=O)c2cccc3c2NCC3)CC1 [Example 129, 1-[2,3-Didehydroindolyl-7-carbonyl]-4-[3-(1-methylethylamino)-2-pyridinyl]piperazine]",68 to 84
14,"CC(C)(C)Nc1nccnc1N1CCN(C(=O)c2cc3cc(F)ccc3[nH]2)CC1 [Example 51, 1-[5-Fluoroindolyl-2-carbonyl]-4-[3-(1,1-dimethylethylamino)-2-pyrazinyl]piperazine]",55
15,"CC(C)Nc1cccnc1N1CCN(C(=O)c2cccc3cc[nH]c23)CC1 [Example 128, 1-[Indolyl-7-carbonyl]-4-[3-(1-methylethylamino)-2-pyridinyl]-piperazine]",89 to 98
16,"CC(C)Nc1cccnc1OCCOC(=O)c1cc2ccccc2[nH]1 [Example 59, 2-(2-(Indolyl-2-carboxy)ethoxy)-3-(1-methylethylamino)pyridine]",61 to 75
17,CCNc1cccnc1N1CCN(Cc2cc3cc(OC)ccc3[nH]2)CC1 [Example 80],61 to 70
18,CCNc1cccnc1N(C)CCCN(C)C(=O)c1cc2ccccc2[nH]1 [Example 111],86 to 92
19,"CC(C)Nc1cccnc1N1CCN(C(=O)c2cc3c(ccc4ccccc43)[nH]2)CC1 [Example 122, 1-[Benz[e]indolyl-2-carbonyl]-4-[3-(1-methylethylamino)-2-pyridinyl]piperazine]",84
20,CCNc1cccnc1N1CCN(C(=O)c2cccc3c2NCC3)CC1 [Example 130],48 to 59
21,"COc1c(C)cc(C(=O)N2CCN(c3ncccc3NC(C)C)CC2)cc1C [Example 78, 1-[3,5-Dimethyl-4-methoxybenzoyl]-4-[3-(1-methylethylamino)-2-pyridinyl]piperazine]",74
22,"CCNc1cccnc1N(C)CCN(C)C(=O)c1cc2ccccc2[nH]1 [Example 123, N,N'-Dimethyl-N-(indolyl-2-carbonyl)-N'-(3-ethylamino-2-pyridyl)ethylenediamine]",47 to 60
23,CCC(CC)Nc1cccnc1N1CCN(C(=O)c2cc3ccccc3[nH]2)CC1 [Example 100],81 to 82
24,"CC(C)(C)Nc1ccnnc1N1CCN(C(=O)c2cc3cc(O)ccc3[nH]2)CC1 [Example 120, 1-[5-Hydroxyindolyl-2-carbonyl]-4-[4-(1,1-dimethylethylamino)-2-pyridazinyl]piperazine]",87 to 90
25,"CC(C)Nc1cccnc1N1CCN(C(=O)c2cc3ccc4ccccc4c3[nH]2)CC1 [Example 121, 1-[Benz[g]indolyl-2-carbonyl]-4-[3-(1-methylethylamino)-2-pyridinyl]piperazine]",64 to 70
26,"O=C(c1cc2ccccc2[nH]1)N1CCN(c2nccnc2NC2CC2)CC1 [Example 57, 1-(Indolyl-2-carbonyl)-4-(3-cyclopropylamino-2-pyrazinyl)piperazine]",52 to 65
27,"COc1ccc2[nH]c(C(=O)N(C)CCN(C)c3ncccc3NC(C)C)cc2c1 [Example 107, N,N'-Dimethyl-N-(5-methoxyindolyl-2-carbonyl)-N'-[3-(1-methylethylamino)-2-pyridyl]ethylenediamine]",77 to 87

# Test system: HIV in primary human peripheral blood lymphocytes
# Assay: Primary PBL assay: inhibition of viral replication (p24 & RNA)
# Format: cell-based
# Details: Human immunodeficiency virus 1, Lymphocyte, primary human lymphocytes infected with HIV, days three and four, read-out: PBL INHIBITION OF VIRAL REPLICATION (p24 & RNA) ED50
# Description: ^3 The utility of the compounds of the invention is further
# infection in primary peripheral blood lymphocytes (primary PBL assay). Th
# primary PBL assay offers the following advantages:
# (a) The assays are performed with primary human lymphocytes. Thereby,
# undesired testing of transformed cell lines is avoided in which host cell
# and virus may have undergone processes of mutual adaptation. Performance
# of cell culture in serum containing media closely mimics the in vivo
# situation. (b) The primary PBL assay distinguishes between true antiviral
# effect which is due to the drug and cytostatic/cytotoxic reactions. (c)
# Viral replication is precisely followed by kinetic measurement of viral
# nucleic acids and proteins. (d) Nucleic acids (total HIVRNA intra and
# extracellular) and protein (secreted p24) are measured in parallel which
# permits one to differentiate between the compound's effect on virus
# replication and on the expression of viral proteins. This leads to
# additional information regarding the efficacy of the test compound. (e)
# Tolerance of the cell culture against low amounts of organic solvents als
# permits the investigation of hydrophobic substances. (f) The dose of the
# drug causing half maximal suppression of virus replication is determined.
# (g) The screening system is standardized and automated to a high degree.
# The primary PBL assay uses the following procedure:
# Effects of the compounds of the invention on cell proliferation are determined by lymphocyte proliferation assays. Starting with a 100 micromolar solution, the compound is serially diluted 10 fold. One tenth of the concentration of a compound causing half maximal inhibition of cellular proliferation is employed for all subsequent testing.
# Peripheral human lymphocytes are isolated by density gradient centrifugation. After stimulation by mitogen the cells are infected with a standardized preparation of HIV. Subsequently, the infected cells are cultured in the presence of the drug for four days. Individual cultures are established to measure viral replication three and four days following infection. Untreated cells and AZT-treated cells are included as controls in parallel with the drugs under investigation.
# The amount of viral core protein p24 synthesized and release by the infected cells is determined in the supernatant by the capture-ELISA technique on days three and four. By comparing with a standard preparation, the amount of protein produced by the virus infected cells is quantified.
# The total amount of viral RNA synthesized by the infected lymphocytes is determined by a special nucleic acid hybridization on days three and four of culture. By including a standard preparation of HIV-RNA the amount of synthesized RNA is quantified.
# In addition, viability of HIV-infected cells is determined in parallel with assays for viral p24 and RNA. In order to evaluate the half maximal antiviral effect of the drug, a concentration dependency of the drug action is measured.
# Numerous examples of the compounds of the invention are assayed according to this procedure. The anti-HIV activity, as measured by the inhibition of the release of core p24 protein in HIV infected human lymphocytes, is used to calculate ED50 -antiviral (the concentration required to give a 50% reduction in p24 synthesis).
row,SMILES,EC50 [nM]
1,"CC(C)Nc1cccnc1N1CCN(C(=O)c2ccc[nH]2)CC1 [Example 69, 1-[Pyrrolyl-2-carbonyl]-4-[3-(1-methylethylamino)-2-pyridinyl]piperazine]",100
2,"Cc1cccc2[nH]c(C(=O)N3CCN(c4ncccc4NC(C)C)CC3)cc12 [Example 97, 1-[4-Methylindolyl-2-carbonyl]-4-[3-(1-methylethylamino)-2pyridinyl]-piperazine]",≤ 10
